The experiment relates to IMR-90 human lung fibroblasts. In words: IMR-90 fibroblast culture with peptides, gelatin or collagen added to media. Type of experiment: cell-based. As to conditions: 30 μg/mL added to media, imaged after three days at 37° C. Here is the method:
IMR-90 human lung fibroblasts were purchased from ITCC. Cells were thawed and cultured in EMEM supplemented with 10% FBS and 1% Pen-Strep. Cells were cultured to 80-95% confluency then sub-cultured for three passages prior to utilization in experiments.
Experimental wells were prepared by adding 100 μL cell media to wells of a 96-well gelatin coated plate (corning) or 300 μL media to the wells of a 48-well uncoated cell culture plate. Peptides, as listed below, were added to each well (5 μL to 96 well plates, 10 μL to 48 well plates).
During passaging, cells were quantified, and 2100 IMR-90 cells were added to each well of the 96 well gelatin-coated plate. For the uncoated plate IMR-90 cells were added to each well. Additional media was added to bring the volume to 200 μL (96 well) or 500 μL (48 well). Cells were cultured at 37° C., 5% CO2 for three days then imaged. […] Media was added one day later (day 4) then allowed to culture an additional 2 days before imaging and lysing cells. qPCR was performed on cell lysate following cDNA synthesis (cell-to-CT kit, Thermo Fisher scientific).

As to collagen, the “confluence and directionality of cell growth” value was “higher confluence and more directionality in cell growth”.

gelatin: the “confluence and directionality of cell growth” value was “higher confluence and more directionality in cell growth”.

The record behind these values is patent publication US20240400647A1, “Biologically Active Collagen Hybridizing Peptides” (3HELIX, INC., priority 2021, published 2024).
